Results reported in patent US20160015770A1, “COMPOSITIONS FOR TREATMENT OF RETINAL DETACHMENT” (THE REGENTS OF THE UNIVERSITY OF MICHIGAN, priority 2013, published 2016).
“Also recorded” adds a separate entry of the source.

Key:
[1] = test system: 661W cells; test: Western blot of autophagy markers LC3-II and Atg5-12 in 661W cells treated with Fas activating antibody; type: cell-based, mouse; design: presence of LC3-II and Atg5-12 over time (prolongation of autophagy): dose or concentration left out as unconfirmed; conditions: Fas activation
Experimental: The 661W photoreceptor cell line was generously provided by Dr. Muayyad Al-Ubaidi (Department of Cell Biology, University of Oklahoma Health Sciences Center, Oklahoma City, Okla.). The 661W cell line was maintained in Dulbecco's modified Eagle's medium containing 10% fetal bovine serum, 300 mg/L glutamine, 32 mg/L putrescine, 40 μL/L β-mercaptoethanol, and 40 μg/L of both hydrocortisone 21-hemisuccinate and progesterone. The media also contained penicillin (90 units/mL) and streptomycin (0.09 mg/mL). Cells were grown at 37° C. in a humidified atmosphere of 5% CO2 and 95% air. Retinas from experimental eyes with detachment (detached portion of retina only) and control eyes without detachment were dissected from the RPE-choroid, homogenized, and lysed in buffer containing 10 mM HEPES (pH 7.6), 0.5% […], 42 mM KCl, 1 mM phenylmethylsulfonyl fluoride, 1 mM EDTA, 1 mM EGTA, 1 mM dithiothreitol, 5 mM MgCl2, and one tablet of protease inhibitors per 10 mL buffer (Complete Mini; Roche Diagnostics GmbH, Madison, Wis.). 661W cells were plated at 150,000 cells per well in six-well culture dishes in growth media. […] The protein concentration of the supernatant was then determined (DC Protein Assay kit; Bio-Rad Laboratories, Hercules, Calif.). The protein samples were separated on SDS-polyacrylamide gels (Tris-HCl Ready Gels; Bio-Rad Laboratories). […]

[2] = test system: detached retina; test: Experimental retinal detachment, western blot of autophagy markers (Atg5, Atg5-12, LC3-II) in retina; type: in vivo; conditions: rat, 0.2 μg subretinal at time of detachment, 7 days, vs detached retinas alone
Experimental: All experiments were performed in accordance with the ARVO Statement for the Use of Animals in Ophthalmic and Vision Research and the guidelines established by the University Committee on Use and Care of Animals of the University of Michigan. Detachments were created in adult male Brown-Norway rats (300-400 g; Charles River Laboratories, Wilmington, Mass.) as described previously. Briefly, rodents were anesthetized with a 50:50 mix of ketamine/xylazine, and pupils were dilated with topical phenylephrine (2.5%) and tropicamide (1%). A 20-gauge microvitreoretinal blade was used to create a sclerotomy 2 mm posterior to the limbus, carefully avoiding lens damage. A subretinal injector (Glaser, 32-gauge tip; BD Ophthalmic Systems, Franklin Lakes, N.J.) was introduced through the sclerotomy into the vitreous cavity and then through a peripheral retinotomy into the subretinal space. Sodium hyaluronate (10 mg/mL, Healon OVD; Abbott Medical Optics, Uppsala, Sweden) was slowly injected to detach the neurosensory retina from the underlying RPE. In all experiments, approximately one third to one half of the neurosensory retina was detached. Detachments were created in the left eye. The right eye served as the control, with all the steps of the procedure performed except for introduction of the subretinal injector and injection of the sodium hyaluronate. […]
Retinas from experimental eyes with detachment (detached portion of retina only) and control eyes without detachment were dissected from the RPE-choroid, homogenized, and lysed in buffer containing 10 mM HEPES (pH 7.6), 0.5% IgEPal, 42 mM KCl, 1 mM phenylmethylsulfonyl fluoride, 1 mM EDTA, 1 mM EGTA, 1 mM dithiothreitol, 5 mM MgCl2, and one tablet of protease inhibitors per 10 mL buffer (Complete Mini; Roche Diagnostics GmbH, Madison, Wis.). […] The protein concentration of the supernatant was then determined (DC Protein Assay kit; Bio-Rad Laboratories, Hercules, Calif.). The protein samples were separated on SDS-polyacrylamide gels (Tris-HCl Ready Gels; Bio-Rad Laboratories). […]

CCCC[C@@H](C=O)NC(=O)[C@H](CC(C)C)NC(=O)OCc1ccccc1 [calpeptin]
dose at which LC3-II and Atg5-12 peaked (dose response for increasing autophagy) ([1]; 24 hours): 25 µM
presence of LC3-II and Atg5-12 over time (prolongation of autophagy) ([1]; various lengths of time, calpeptin as printed, vs Fas activation alone / DMSO): lasted for an extended period of time; also recorded: elongated presence of LC3-II and Atg5-12
Atg5 level in retina [2]: increase in Atg5; also recorded: significantly more Atg5
